Assay results as given in patent US8344028B2, “Gamma-amino-butyric acid derivatives as GABAB receptor ligands” (XenoPort, Inc., priority 2009, dated 2013).

Molecular target: GABAB receptor (Homo sapiens, UniProt Q9UBS5)
Experiment: GABAB receptor agonist or partial agonist activity by binding, electrophysiology, cAMP and/or Ca2+ assay methods (Examples 83-86)
Assay type: cell-based
Method in brief: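 Binding: rat cortex membranes in 50 mM Tris pH 7.4 with 100 μM isoguvacine were preincubated 10 min at RT with compound, then radiolabeled CGP54626 (1-10 nM) was added; filtered and scintillation-counted. cAMP: GABAB R1a2 HEK cells, 1 h RT with 100 μM forskolin, chemiluminescence.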

Chain of GABAB receptor (Q9UBS5 20-961): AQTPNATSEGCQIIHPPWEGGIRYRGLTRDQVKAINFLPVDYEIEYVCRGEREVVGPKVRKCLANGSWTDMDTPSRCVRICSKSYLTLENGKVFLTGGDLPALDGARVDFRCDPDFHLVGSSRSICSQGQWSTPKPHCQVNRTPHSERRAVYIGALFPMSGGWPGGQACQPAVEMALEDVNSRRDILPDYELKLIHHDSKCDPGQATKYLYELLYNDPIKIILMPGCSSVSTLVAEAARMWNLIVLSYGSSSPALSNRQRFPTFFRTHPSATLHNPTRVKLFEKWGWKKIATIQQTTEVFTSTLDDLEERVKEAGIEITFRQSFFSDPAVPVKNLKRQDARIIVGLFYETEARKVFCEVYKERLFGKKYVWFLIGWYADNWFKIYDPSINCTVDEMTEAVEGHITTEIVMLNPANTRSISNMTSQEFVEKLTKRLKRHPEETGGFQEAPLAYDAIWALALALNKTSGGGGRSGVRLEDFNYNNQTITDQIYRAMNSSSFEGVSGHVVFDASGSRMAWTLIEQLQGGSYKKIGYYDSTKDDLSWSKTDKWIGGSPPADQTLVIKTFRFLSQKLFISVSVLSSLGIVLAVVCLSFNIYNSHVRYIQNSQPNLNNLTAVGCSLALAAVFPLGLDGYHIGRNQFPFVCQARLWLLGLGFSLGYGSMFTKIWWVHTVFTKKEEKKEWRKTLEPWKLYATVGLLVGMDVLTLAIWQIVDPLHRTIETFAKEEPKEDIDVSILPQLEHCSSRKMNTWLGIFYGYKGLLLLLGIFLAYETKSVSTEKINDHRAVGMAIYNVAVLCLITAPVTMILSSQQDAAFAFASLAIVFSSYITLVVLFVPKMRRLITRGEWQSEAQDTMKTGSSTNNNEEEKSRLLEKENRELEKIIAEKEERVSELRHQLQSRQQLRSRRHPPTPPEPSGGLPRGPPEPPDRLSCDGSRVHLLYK
Chain of GABAB receptor (O75899 42-941 partner): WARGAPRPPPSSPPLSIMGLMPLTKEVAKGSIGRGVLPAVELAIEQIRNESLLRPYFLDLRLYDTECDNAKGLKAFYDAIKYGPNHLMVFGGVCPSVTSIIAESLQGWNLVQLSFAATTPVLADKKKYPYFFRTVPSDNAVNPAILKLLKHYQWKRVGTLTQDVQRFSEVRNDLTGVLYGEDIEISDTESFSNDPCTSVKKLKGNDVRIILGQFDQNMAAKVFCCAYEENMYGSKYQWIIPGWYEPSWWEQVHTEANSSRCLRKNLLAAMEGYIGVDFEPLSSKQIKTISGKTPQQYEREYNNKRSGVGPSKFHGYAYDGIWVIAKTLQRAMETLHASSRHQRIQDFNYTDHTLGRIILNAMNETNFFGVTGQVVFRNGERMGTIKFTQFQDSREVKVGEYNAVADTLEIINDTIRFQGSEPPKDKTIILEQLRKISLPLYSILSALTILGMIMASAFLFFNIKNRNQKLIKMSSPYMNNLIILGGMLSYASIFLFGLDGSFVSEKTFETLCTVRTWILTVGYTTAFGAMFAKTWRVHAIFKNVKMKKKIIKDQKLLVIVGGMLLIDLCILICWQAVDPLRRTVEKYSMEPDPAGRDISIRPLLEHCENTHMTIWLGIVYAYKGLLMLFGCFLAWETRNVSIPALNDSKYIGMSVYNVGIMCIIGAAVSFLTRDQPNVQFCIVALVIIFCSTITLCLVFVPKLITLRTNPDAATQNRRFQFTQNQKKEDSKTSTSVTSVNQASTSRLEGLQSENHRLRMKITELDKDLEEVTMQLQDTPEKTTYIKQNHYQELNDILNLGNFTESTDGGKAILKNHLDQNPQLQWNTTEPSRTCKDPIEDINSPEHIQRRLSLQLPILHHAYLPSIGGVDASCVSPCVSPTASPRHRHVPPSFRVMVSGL

Cl.N#Cc1cccc(-c2cc([C@H](CN)CC(=O)O)cc(Br)c2Cl)c1 [(3R)-4-amino-3-[3-bromo-4-chloro-5-(3-cyanophenyl]butanoic acid hydrochloride]
GABAB receptor agonist or partial agonist activity: agonist or partial agonist activity

Cl.NC[C@H](CC(=O)O)c1ccc(Cl)c(OCc2ccccc2)c1 [(3R)-4-amino-3-[4-chloro-3-(phenylmethoxy)phenyl]butanoic acid hydrochloride]
GABAB receptor agonist or partial agonist activity: agonist or partial agonist activity

Cl.NC[C@H](CC(=O)O)c1ccc(Cl)c(-c2ccc(Cl)c(Cl)c2)c1 [(3R)-4-amino-3-[4-chloro-3-(3,4-dichlorophenyl)phenyl]butanoic acid hydrochloride]
GABAB receptor agonist or partial agonist activity: agonist or partial agonist activity

CN(C)c1cccc(-c2cc([C@H](CN)CC(=O)O)ccc2Cl)c1.Cl [Example 41, (3R)-4-Amino-3-{3-[3-(dimethylamino)phenyl]-4-chlorophenyl}butanoic acid hydrochloride]
GABAB receptor agonist or partial agonist activity: agonist or partial agonist activity

Cl.NC[C@H](CC(=O)O)c1ccc(Cl)cc1/C=C/c1ccccc1 [3-[2-((1E)-2-phenylvinyl)-4-chlorophenyl](3R)-4-aminobutanoic acid hydrochloride]
GABAB receptor agonist or partial agonist activity: agonist or partial agonist activity

NC[C@H](CC(=O)O)c1ccc(Cl)c(-c2cncc(C(F)(F)F)c2)c1 [(3R)-4-amino-3-{4-chloro-3-[5-(trifluoromethyl)(3-pyridyl)]phenyl}butanoic acid]
GABAB receptor agonist or partial agonist activity: agonist or partial agonist activity

Cl.NC[C@H](CC(=O)O)c1ccc(Cl)c(NCc2ccc([N+](=O)[O-])cc2)c1 [(3R)-4-amino-3-(4-chloro-3-{[(4-nitrophenyl)methyl]amino}phenyl)butanoic acid hydrochloride]
GABAB receptor agonist or partial agonist activity: agonist or partial agonist activity

Cc1cc(C(=O)Nc2cc([C@H](CN)CC(=O)O)ccc2Cl)n(C)n1 [(3R)-4-amino-3-{3-[(1,3-dimethylpyrazol-5-yl)carbonylamino]-4-chlorophenyl}butanoic acid]
GABAB receptor agonist or partial agonist activity: agonist or partial agonist activity

(3R)-4-amino-3-{4-chloro-3-[(2-pyridyl)carbonylamino]phenyl)carbonylamino]phenyl}butanoic acid
GABAB receptor agonist or partial agonist activity: agonist or partial agonist activity

Cl.N#Cc1ccc(C(=O)O)cc1-c1cc([C@H](CN)CC(=O)O)ccc1Cl [3-{5-[(1R)-2-amino-1-(carboxymethyl)ethyl]-2-chlorophenyl}-4-cyanobenzoic acid hydrochloride]
GABAB receptor agonist or partial agonist activity: agonist or partial agonist activity

Cl.NC[C@H](CC(=O)O)c1ccc(Cl)c(-c2ccncc2)c1 [(3R)-4-amino-3-(4-chloro-3-(4-pyridyl)phenyl)butanoic acid hydrochloride]
GABAB receptor agonist or partial agonist activity: agonist or partial agonist activity

Cl.NC[C@H](CC(=O)O)c1ccc(Cl)c(NCc2cccc(F)c2)c1 [(3R)-4-amino-3-(4-chloro-3-{[(3-fluorophenyl)methyl]amino}phenyl)butanoic acid hydrochloride]
GABAB receptor agonist or partial agonist activity: agonist or partial agonist activity

Cl.NC[C@H](CC(=O)O)c1ccc(Cl)c(-c2ccc(C(=O)O)cc2)c1 [Example 24, 4-{5-[(1R)-2-Amino-1-(carboxymethyl)ethyl]-2-chlorophenyl}benzoic acid hydrochloride]
GABAB receptor agonist or partial agonist activity: agonist or partial agonist activity

Cl.N#Cc1cc(O)cc(-c2cc([C@H](CN)CC(=O)O)ccc2Cl)c1 [(3R)-4-amino-3-[4-chloro-3-(3-cyano-5-hydroxyphenyl)phenyl]butanoic acid hydrochloride]
GABAB receptor agonist or partial agonist activity: agonist or partial agonist activity

Cl.N#Cc1ccc(COc2cc([C@H](CN)CC(=O)O)ccc2Cl)cc1 [(3R)-4-amino-3-{4-chloro-3-[(4-cyanophenyl)methoxy]phenyl}butanoic acid hydrochloride]
GABAB receptor agonist or partial agonist activity: agonist or partial agonist activity

Cl.NC[C@H](CC(=O)O)c1ccc(Cl)c(NCc2ccc(C(=O)O)cc2)c1 [Example 63, 4-[({5-[(1R)-2-Amino-1-(carboxymethyl)ethyl]-2-chlorophenyl}amino)methyl]benzoic acid hydrochloride]
GABAB receptor agonist or partial agonist activity: agonist or partial agonist activity

Cn1cncc1CNc1cc([C@H](CN)CC(=O)O)ccc1Cl [Example 59, (3R)-4-Amino-3-(4-chloro-3-{[(1-methylimidazol-5-yl)methyl]amino}phenyl)butanoic acid]
GABAB receptor agonist or partial agonist activity: agonist or partial agonist activity

Cl.NC[C@H](CC(=O)O)c1ccc(Cl)c(NCc2ccco2)c1 [(3R)-4-amino-3-{4-chloro-3-[(2-furylmethyl)amino]phenyl}butanoic acid hydrochloride]
GABAB receptor agonist or partial agonist activity: agonist or partial agonist activity
